In the supplement of paper PMC10307832:

Columns and labels:
Experiment in all cases: relative viability (nuclei count vs DMSO), 5 days (fraction); higher = more cells survive
201T = system: 201T
In short: (§1)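 Lung cancer cell lines were pin-tool dosed in 1536-well plates on the day after seeding, with either a lone drug or a fixed anchor-drug dose plus five library-drug doses (not always all listed) in √10 steps. Nuclei were counted on 4× images after 5 days. Relative viability is the ratio of treated-well to vehicle-well nuclei counts, with each value a median of duplicate plates.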

COR-L23 = system: COR-L23
In short: as §1

ChaGo-K-1 = system: ChaGo-K-1
In short: as §1

HARA = system: HARA
In short: as §1

HCC-15 = system: HCC-15
In short: as §1

HCC-366 = system: HCC-366
In short: as §1

HCC-78 = system: HCC-78
In short: as §1

LCLC-103H = system: LCLC-103H
In short: as §1

LCLC-97TM1 = system: LCLC-97TM1
In short: as §1

LOU-NH91 = system: LOU-NH91
In short: as §1

NCI-H1355 = system: NCI-H1355
In short: as §1

NCI-H1734 = system: NCI-H1734
In short: as §1

NCI-H1792 = system: NCI-H1792
In short: as §1

NCI-H2009 = system: NCI-H2009
In short: as §1

NCI-H2126 = system: NCI-H2126
In short: as §1

NCI-H441 = system: NCI-H441
In short: as §1

NCI-H460 = system: NCI-H460
In short: as §1

NCI-H596 = system: NCI-H596
In short: as §1

NCI-H647 = system: NCI-H647
In short: as §1

NCI-H650 = system: NCI-H650
In short: as §1

PC-14 = system: PC-14
In short: as §1

SW 900 = system: SW 900
In short: as §1

COCC1(CO)C(=O)C2CCN1CC2 (configuration not stated) [PRIMA-1MET] + O=C(c1cc(Cc2n[nH]c(=O)c3ccccc23)ccc1F)N1CCN(C(=O)C2CC2)CC1 [Olaparib] (partner 8 µM)
relative viability (201T; first compound 0.2 µM): 0.947 | relative viability (201T; first compound 0.6325 µM): 0.829 | relative viability (201T; first compound 2 µM): 0.808 | relative viability (201T; first compound 6.325 µM): 0.908 | relative viability (201T; first compound 20 µM): 0.839 | relative viability (COR-L23; first compound 0.2 µM): 0.38 | relative viability (COR-L23; first compound 0.6325 µM): 0.315 | relative viability (COR-L23; first compound 2 µM): 0.379 | relative viability (COR-L23; first compound 6.325 µM): 0.315 | relative viability (COR-L23; first compound 20 µM): 0.106 | relative viability (ChaGo-K-1; first compound 0.2 µM): 0.461 | relative viability (ChaGo-K-1; first compound 0.6325 µM): 0.407 | relative viability (ChaGo-K-1; first compound 2 µM): 0.437 | relative viability (ChaGo-K-1; first compound 6.325 µM): 0.426 | relative viability (ChaGo-K-1; first compound 20 µM): 0.318 | relative viability (HARA; first compound 0.2 µM): 0.69 | relative viability (HARA; first compound 0.6325 µM): 0.832 | relative viability (HARA; first compound 2 µM): 0.7 | relative viability (HARA; first compound 6.325 µM): 0.75 | relative viability (HARA; first compound 20 µM): 0.741 | relative viability (HCC-15; first compound 0.2 µM): 0.789 | relative viability (HCC-15; first compound 0.6325 µM): 0.772 | relative viability (HCC-15; first compound 2 µM): 0.746 | relative viability (HCC-15; first compound 6.325 µM): 0.668 | relative viability (HCC-15; first compound 20 µM): 0.628 | relative viability (HCC-366; first compound 0.2 µM): 0.396 | relative viability (HCC-366; first compound 0.6325 µM): 0.346 | relative viability (HCC-366; first compound 2 µM): 0.328 | relative viability (HCC-366; first compound 6.325 µM): 0.34 | relative viability (HCC-366; first compound 20 µM): 0.0865 | relative viability (HCC-78; first compound 0.2 µM): 1 | relative viability (HCC-78; first compound 0.6325 µM): 1.06 | relative viability (HCC-78; first compound 2 µM): 0.573 | relative viability (HCC-78; first compound 6.325 µM): 0.881 | relative viability (HCC-78; first compound 20 µM): 0.338 | relative viability (LCLC-103H; first compound 0.2 µM): 0.841 | relative viability (LCLC-103H; first compound 0.6325 µM): 0.717 | relative viability (LCLC-103H; first compound 2 µM): 0.711 | relative viability (LCLC-103H; first compound 6.325 µM): 0.8 | relative viability (LCLC-103H; first compound 20 µM): 0.703 | relative viability (LCLC-97TM1; first compound 0.2 µM): 0.45 | relative viability (LCLC-97TM1; first compound 0.6325 µM): 0.33 | relative viability (LCLC-97TM1; first compound 2 µM): 0.461 | relative viability (LCLC-97TM1; first compound 6.325 µM): 0.347 | relative viability (LCLC-97TM1; first compound 20 µM): 0.236 | relative viability (LOU-NH91; first compound 0.2 µM): 1.02 | relative viability (LOU-NH91; first compound 0.6325 µM): 0.911 | relative viability (LOU-NH91; first compound 2 µM): 0.866 | relative viability (LOU-NH91; first compound 6.325 µM): 0.978 | relative viability (LOU-NH91; first compound 20 µM): 0.65 | relative viability (NCI-H1355; first compound 0.2 µM): 0.768 | relative viability (NCI-H1355; first compound 0.6325 µM): 0.745 | relative viability (NCI-H1355; first compound 2 µM): 0.713 | relative viability (NCI-H1355; first compound 6.325 µM): 0.818 | relative viability (NCI-H1355; first compound 20 µM): 0.707 | relative viability (NCI-H1734; first compound 0.2 µM): 0.711 | relative viability (NCI-H1734; first compound 0.6325 µM): 0.627 | relative viability (NCI-H1734; first compound 2 µM): 0.581 | relative viability (NCI-H1734; first compound 6.325 µM): 0.631 | relative viability (NCI-H1734; first compound 20 µM): 0.0357 | relative viability (NCI-H1792; first compound 0.2 µM): 0.899 | relative viability (NCI-H1792; first compound 6.325 µM): 0.444 | relative viability (NCI-H1792; first compound 20 µM): 0.457 | relative viability (NCI-H2009; first compound 0.2 µM): 0.657 | relative viability (NCI-H2009; first compound 0.6325 µM): 0.814 | relative viability (NCI-H2009; first compound 2 µM): 0.709 | relative viability (NCI-H2009; first compound 6.325 µM): 0.631 | relative viability (NCI-H2009; first compound 20 µM): 0.202 | relative viability (NCI-H2126; first compound 0.2 µM): 0.908 | relative viability (NCI-H2126; first compound 0.6325 µM): 0.861 | relative viability (NCI-H2126; first compound 2 µM): 0.854 | relative viability (NCI-H2126; first compound 6.325 µM): 0.972 | relative viability (NCI-H2126; first compound 20 µM): 0.831 | relative viability (NCI-H441; first compound 0.2 µM): 0.559 | relative viability (NCI-H441; first compound 0.6325 µM): 0.674 | relative viability (NCI-H441; first compound 2 µM): 0.615 | relative viability (NCI-H441; first compound 6.325 µM): 0.505 | relative viability (NCI-H441; first compound 20 µM): 0.407 | relative viability (NCI-H460; first compound 0.2 µM): 0.532 | relative viability (NCI-H460; first compound 0.6325 µM): 0.337 | relative viability (NCI-H460; first compound 2 µM): 0.384 | relative viability (NCI-H460; first compound 6.325 µM): 0.451 | relative viability (NCI-H460; first compound 20 µM): 0.162 | relative viability (NCI-H596; first compound 0.2 µM): 0.718 | relative viability (NCI-H596; first compound 0.6325 µM): 0.652 | relative viability (NCI-H596; first compound 2 µM): 0.6 | relative viability (NCI-H596; first compound 6.325 µM): 0.735 | relative viability (NCI-H596; first compound 20 µM): 0.238 | relative viability (NCI-H647; first compound 0.2 µM): 0.461 | relative viability (NCI-H647; first compound 0.6325 µM): 0.614 | relative viability (NCI-H647; first compound 2 µM): 0.722 | relative viability (NCI-H647; first compound 6.325 µM): 0.607 | relative viability (NCI-H647; first compound 20 µM): 0.593 | relative viability (NCI-H650; first compound 0.2 µM): 0.492 | relative viability (NCI-H650; first compound 0.6325 µM): 0.453 | relative viability (NCI-H650; first compound 2 µM): 0.339 | relative viability (NCI-H650; first compound 6.325 µM): 0.368 | relative viability (NCI-H650; first compound 20 µM): 0.187 | relative viability (PC-14; first compound 0.2 µM): 0.261 | relative viability (PC-14; first compound 0.6325 µM): 0.208 | relative viability (PC-14; first compound 2 µM): 0.24 | relative viability (PC-14; first compound 6.325 µM): 0.275 | relative viability (PC-14; first compound 20 µM): 0.209 | relative viability (SW 900; first compound 0.2 µM): 1.06 | relative viability (SW 900; first compound 0.6325 µM): 0.888 | relative viability (SW 900; first compound 6.325 µM): 0.882 | relative viability (SW 900; first compound 20 µM): 0.0786
